In patent publication US20240197760A1, “ACTIVATORS OF INTEGRATED STRESS RESPONSE PATHWAY FOR PROTECTION AGAINST FERROPTOSIS” (Burke Neurological Institute, priority 2021, published 2024):
Entries after “also recorded” stand apart in the source; their conditions may differ.

Experiments:
[1] = tested on: human Bdnf promoters; assay: Human Bdnf promoter luciferase reporters in HT22 cells; type: cell-based, mouse; conditions: 10 mM, 6 h
[2] = tested on: primary neurons; assay: High throughput RNA sequencing of primary neurons; type: cell-based, mouse
Procedure: Primary cortical neurons were treated with 2-DG (1 mM and 10 mM) for 6 h from three independent cultures and RNA was isolated from each sample using a NucleoSpin RNA II Kit (Clontech, Catalog number-740955-250). For each RNA sample, RNA quality was initially quantified using the RNA Integrity Number (RIN) on an Agilent Bioanalyzer (Agilent Genomics). RNA-sequencing was carried out for the RNAs with by the UCLA Neuroscience Genomics Core. In brief, cDNA was generated using Ovation® RNA-Seq System V2 (NuGEN) followed by the library preparation using Illumina's TruSeq Stranded RNA (100 ng)+RiboZero Gold. The libraries were pooled and sequenced to generate 75 bp paired end reads on HiSeqTM4000 system (Illumina). Minimum of […] reads were obtained. Reads were aligned to the mouse mm10 reference genome using the STAR (ver 2.4.0) spliced read aligner (Dobin et al., 2013). Uniquely aligned read percentage was […](SD). Various quality matrix was generated to use high quality data for the analysis. Read counts for mouse […] genes were generated by HT-seq 0.6.1 (Anders et al., 2015). Genes with at least 5 read events at least half of samples were permitted into the dataset, for a total of 15,787 genes. Raw counts were normalized by trimmed mean of M values (TMM). Differentially expressed genes (DEG) were analyzed using an EdgeR bioconductor R (Robinson et al., 2010). False discovery rate less than 0.1 is used to define differentially expressed genes. Gene Set Enrichment Analysis (GSEA) was performed with gene lists sorted by directional p-Values from differential expression analysis. Raw and processed RNAseq data are deposited to Gene Expression Omnibus (GEO #).

[3] = tested on: ICH mice; assay: Collagenase-induced intracerebral hemorrhage (ICH), tape removal test; type: in vivo, mouse; conditions: 10 mg/Kg i.p. from 24 h after collagenase, every day for 3 weeks; from day 7 onwards (days 7 and 21 vs saline)
Procedure: To assess the effect of 2-DG on the Bdnf gene expression, mice were injected with either saline or 2-DG (10 mg/Kg) intraperitoneally for 6 h and then mice were euthanized properly, and hippocampi were dissected out from mice brain. In order to assess functional improvement with 2-DG treatment after ischemic stroke, mice were injected with 2-DG (10 mg/Kg) intraperitoneally 24 h after induction of the stroke and then every day for four weeks. For assessing functional improvement with 2-DG treatment after hemorrhagic stroke, mice were injected with 2-DG (10 mg/Kg) intraperitoneally 24 h after induction of the stroke and then every day for three weeks. ICH was induced as described before (Karuppagounder et al., 2016). Briefly, male C57BL/6 mice (8 to 10 weeks of age; Charles River) were anesthetized with isoflurane (2 to 5%) and placed on a stereotaxic frame. During the procedure, the animal's body temperature was maintained at 37° ° C. with a homeothermic blanket. […] of collagenase (0.075 IU; Sigma) was infused into the right striatum at a flow rate of […] with a nanomite syringe pump (Harvard Apparatus) and a Hamilton syringe. […] The time from which the tape was applied to when the mouse successfully removed it was recorded for each paw. […]

[4] = tested on: hippocampal slices; assay: Long term potentiation (fEPSP) in submerged hippocampal slices; parameters: species or system mouse; conditions: 10 mM for 6 h in ACSF
Excerpt: Brains were quickly removed from mice sacrificed by cervical dislocation and placed in cold artificial cerebrospinal fluid (ACSF) (bubbled with 95% O2/5% CO2) containing (in mM): 124 NaCl, 4 KCl, 1 Na2HPO4, 25 NaHCO3, 2 CaCl2, 2 MgCl2, and 10 glucose. The pH and osmolarity of the solution were 7.4 and 310 mOsm/L, respectively. The hippocampus was isolated and placed on a mechanical tissue chopper to produce transverse hippocampal slices of 400 μm thickness. […] Hippocampal slices were allowed to recover for at least 90 min prior to beginning the experiment. For recordings, glass electrodes were filled with ACSF and positioned in the CA1 stratum radiatum to record fEPSPs evoked by local stimulation (0.1 ms) of Schaffer collateral fibers using a bipolar concentric electrode placed laterally to the recording electrode (˜150 μm). For LTP recordings, the voltage intensity of the stimulation test pulse (square pulse, 100 us duration) for each slice was determined to be the voltage intensity that had generated 30-40% of the maximum slope obtained using input-output relationships. Facilitation was calculated as the ratio of the slopes of the second and first fEPSPs, and plotted as a function of the inter-pulse duration. For LTP, a test pulse was applied every minute. […] Residual potentiation was calculated as the average of the last 15 min of 2 h of recordings.

OC[C@H]1OC(O)C[C@@H](O)[C@@H]1O (stereo partly drawn) [2-DG, (4R,5S,6R)-6-(hydroxymethyl)oxane-2,4,5-triol]
promoter activity of nine human Bdnf promoters [1]: all Bdnf promoters except Bdnf promoter VI were significantly upregulated | genes related to the unfolded protein response ([2]; 1 mM and 10 mM, 6 h): dose dependent increase | cellular component enrichment analysis ([2]; 1 mM or 10 mM, 6 h): significant enrichment of genes related to endoplasmic reticulum | gene set enrichment analysis: gene signature related to unfolded protein response (UPR) ([2]; 1 mM or 10 mM, 6 h): maximal upregulation | plasticity gene program in RNA sequencing ([2]; 1 mM or 10 mM, 6 h): upregulation of a broad plasticity gene program | mitochondrial gene signature in RNA sequencing ([2]; 2-DG treatment, primary neurons): didn't show any significant change | tape removal test after hemorrhagic stroke [3]: significant improvement; also recorded: significant difference | LTP in submerged hippocampal slices [4]: significant increase
